Laboratory results: EPA's ToxValDB 9.5

Assays:
Rattus norvegicus [1] = settings: oral
Rattus norvegicus [2] = test system: Rattus norvegicus
Rattus norvegicus [3] = settings: short-term, duration: 28 days, oral, gavage, Crl:CD(SD)
[4] = F, Kidney: Kidney, Right, Pelvis, Dilation + Liver: Liver Weight, Relative + Liver: Liver, Large
[5] = F, Whole Body: Clinical Observations
[6] = M, Liver: Hepatocellular Hypertrophy + Liver: Liver Weight, Relative + Liver: Liver, Large
[7] = short-term, duration: 28 days, gavage, F, Sprague-Dawley, Clinical Observation: Salivation Soft feces Diarrhea Soiled perigenital fur + Body Weight Changes: decrease, Gain decrease + Urinalysis: pH …
[8] = short-term, duration: 28 days, gavage, M, Sprague-Dawley, Clinical Observation: Salivation Soft feces Diarrhea Soiled perigenital fur + Body Weight Changes: decrease, Gain decrease + Urinalysis: pH …
[9] = short-term, duration: 4 weeks, oral, gavage, F, Sprague-Dawley
[10] = short-term, duration: 4 weeks, oral, gavage, M, Sprague-Dawley
[11] = subchronic, gavage, M, Sprague-Dawley, Clinical Observation: Soiled perigenital region + Body Weight Changes: Weight gain decrease + Food Consumption: decrease(week 1) + Blood …

## CCCCCCCCCCCCCCCCCC(=O)[O-].CCCCCCCCCCCCCCCCCC(=O)[O-].[Ca+2] [Calcium stearate]
Rattus norvegicus [1]; short-term, duration: 28 days, gavage, M, Sprague-Dawley, Urinalysis: Bilirubin increase + Absolute Organ Weight: Spleen increase
  NOAEL: 2000 mg/kg-day
Rattus norvegicus [2]; subchronic, duration: 13 weeks, dermal, non-occlusive, F, Sprague-Dawley
  NOAEL: 2000 mg/kg-day
Rattus norvegicus [2]; subchronic, duration: 13 weeks, dermal, non-occlusive, M, Sprague-Dawley
  NOAEL: 2000 mg/kg-day

## CCC(F)(F)C(F)(F)C(F)(F)C(F)(F)C(F)(F)C(F)(F)F [1-(Perfluorohexyl)ethane]
Rattus norvegicus [3]; F, Adrenal: Adrenal Gland Histopathology + Adrenal: Adrenal Gland Weight, Absolute + Adrenal: Adrenal Gland Weight, Relative + Bladder: Urinary…
  NOAEL: 200 mg/kg-day
Rattus norvegicus [3]; [4]
  LOAEL: 200 mg/kg-day
  NOAEL: 40 mg/kg-day
Rattus norvegicus [3]; [5]
  LOAEL: 40 mg/kg-day
  NOAEL: 8 mg/kg-day
Rattus norvegicus [3]; M, Adrenal: Adrenal Gland Histopathology + Adrenal: Adrenal Gland Weight, Absolute + Adrenal: Adrenal Gland Weight, Relative + Blood: Activated…
  NOAEL: 200 mg/kg-day
Rattus norvegicus [3]; [6]
  LOAEL: 200 mg/kg-day
  NOAEL: 40 mg/kg-day

## CC(C)c1cccc2ccccc12 [Isopropylnaphthalene]
Rattus norvegicus [1]; [7]
  LOEL: 250 mg/kg-day
  NOEL: 50 mg/kg-day
Rattus norvegicus [1]; [8]
  LOEL: 250 mg/kg-day
  NOEL: 50 mg/kg-day

## COc1ccc(C)cc1N [2-Methoxy-5-methylaniline]
Rattus norvegicus [1]; short-term, duration: 28 days, gavage, M/F, Clinical Observation: Salivation + Body Weight Changes: Weight gain decrease + Food Consumption: decrease + Urinalysis: Occult blood RBC …
  NOEL: 2 mg/kg-day

## C1CN2CCN1CC2 [1,4-Diazabicyclo[2.2.2]octane]
Rattus norvegicus [1]; short-term, duration: 29 days, gavage, M, Sprague-Dawley, Body Weight Changes: Weight gain decrease + Food Consumption: decrease + Histopathology: Kidney: Inflammation, chronic Kidney: Proliferation
  NOAEL: 100 mg/kg-day

## C[C@@H](O)[C@H]1C(=O)N2C(C(=O)O)=C([C@H]3CCCO3)S[C@H]12 [Fropenem]
Rattus norvegicus [1]; chronic, duration: 182 days, gavage, M/F, CD, Clinical Observation: Loose stool Soiled perineal region + Body Weight Changes: decrease + Food Consumption: decrease + Water Consumption: …
  NOAEL: 100 mg/kg-day

## NCCCC1OCC2(CO1)COC(CCCN)OC2 (centres undefined) [2,4,8,10-Tetraoxaspiro[5.5]undecane-3,9-dipropanamine]
Rattus norvegicus [1]; subchronic, gavage, M, Sprague-Dawley, Clinical Observation: Locomotor activity decrease, Respiratory irregularity Prone position Salivation + Body Weight Changes: decrease1000…
  NOEL: < 40 mg/kg-day

## COC1COC(OC2COC(OC3COC(OC4COC(OC)C(OS(=O)(=O)[O-])C4OS(=O)(=O)[O-])C(OC4OC(C(=O)[O-])C(OC)C(OS(=O)(=O)[O-])C4OS(=O)(=O)[O-])C3OS(=O)(=O)[O-])C(OS(=O)(=O)[O-])C2OS(=O)(=O)[O-])C(OS(=O)(=O)[O-])C1OS(=O)(=O)[O-].[Na+].[Na+].[Na+].[Na+].[Na+].[Na+].[Na+].[Na+].[Na+].[Na+] (centres undefined) [Elmiron]
Rattus norvegicus [1]; repeat dose other, gavage, M/F, Fischer 344, Hematology: Hct decrease, Hgb decrease, RBC decrease, Plt increase, WBC increase + Absolute Organ Weight: Liver increase, Spleen increase, …
  NOEL: < 63 mg/kg-day

## O=C1OC(O)C(C(Cl)Cl)=C1Cl (centres undefined) [3-Chloro-4-(dichloromethyl)-5-hydroxy-2(5H)-furanone]
Rattus norvegicus [1]; chronic, duration: 18 weeks, gavage, M/F, Wistar, Deaths + Clinical Observation: Emaciation Wheezy breathing Tangled fur Hypersalivation Dirty mouth surrounding Colored nostril discharges + …
  NOAEL: < 30 mg/kg-day

## [Cl-].[Cl-].[Ti+4].c1cc[cH-]c1.c1cc[cH-]c1 [Titanocene dichloride]
Rattus norvegicus [1]; subchronic, duration: 13 weeks, gavage, M/F, Fischer 344, Deaths + Body Weight Changes: decrease + Absolute Organ Weight: Liver increase, Thymus decrease + Relative Organ Weight: kidney increase, …
  NOEL: < 8 mg/kg-day

## COC(N)=O [Methyl carbamate]
Rattus norvegicus [1]; subchronic, duration: 13 weeks, gavage, M/F, Fischer 344, Deaths + Body Weight Changes: decrease + Absolute Organ Weight: Liver decrease + Relative Organ Weight: Liver decrease + Histopathology: …
  NOEL: 50 mg/kg-day

## Nc1ccccc1OCCOc1ccccc1N [2,2'-[Ethane-1,2-diylbis(oxy)]dianiline]
Rattus norvegicus [1]; short-term, duration: 28 days, gavage, M/F, Blood Chemistry: Alb increase, T-Bil increase, TG decrease, GPT increase, TP increase + Organ Weight: Liver increase, Kidney increase + …
  NOEL: < 50 mg/kg-day

## C=C(C)C [Isobutene]
Rattus norvegicus [1]; short-term, duration: 28 days, gavage, Sprague-Dawley
  NOAEL: 149 mg/kg-day
Rattus norvegicus [2]; reproduction developmental, duration: 17 days, inhalation, F, Wistar
  NOAEL: 18400 mg/m3
Rattus norvegicus [2]; [9]
  LOAEL: 149 mg/kg-day
  NOAEL: 14.9 mg/kg-day
Rattus norvegicus [2]; [10]
  LOAEL: 149 mg/kg-day
  NOAEL: 14.9 mg/kg-day
Rattus norvegicus [2]; subchronic, duration: 13 weeks, inhalation, F, Sprague-Dawley
  NOAEL: 18400 mg/m3
Rattus norvegicus [2]; subchronic, duration: 13 weeks, inhalation, M, Sprague-Dawley
  NOAEL: 18400 mg/m3

## O=c1[nH]c(=O)n([C@@H]2O[C@H](CO)[C@@H](O)[C@@H]2O)cc1/C=C/Br [Bravavir]
Rattus norvegicus [1]; chronic, duration: 182 days, gavage, M/F, Wistar, Deaths + Clinical Observation: Soiled eyelid Smudge, perioral, nose Flush, ear auricle Polyuria Soiled perineal region Decrease or loss of …
  NOEL: 80 mg/kg-day

## CC(C)=CCO [3-Methyl-2-buten-1-ol]
Rattus norvegicus [1]; subchronic, duration: 90 days, drinking water, M/F, Wistar, Body Weight Changes: Mean body weight decrease, Weight gain decrease + Food Consumption: decrease + Water Consumption: decrease + Urinalysis…
  NOAEL: 152 mg/kg-day

## CCCCn1c(O)c(C#N)c(C)c(N=Nc2ccc([N+](=O)[O-])cc2Cl)c1=O
Rattus norvegicus [1]; short-term, duration: 28 days, gavage, M/F, Blood Chemistry: GOT increase, T-bil increase + Organ Weight: Liver increase
  NOEL: 250 mg/kg-day

## Cc1ccc(Cl)c(Cl)c1 [3,4-Dichlorotoluene]
Rattus norvegicus [1]; subchronic, gavage, M, Sprague-Dawley, Deaths + Clinical Observation: Death-1/6 on treatment day 15R + Body Weight Changes: decrease(tendency)Body weight gain decrease(tendency…
  NOEL: 100 mg/kg-day

## O=C(Nc1ccccc1SSc1ccccc1NC(=O)c1ccccc1)c1ccccc1 [2,2'-Dibenzoylaminodiphenyl disulfide]
Rattus norvegicus [1]; subchronic, gavage, M, Sprague-Dawley, Clinical Observation: Salivation + Blood Chemistry: ALT increase, Glu increase + Absolute Organ Weight: Liver increase + Relative Organ …
  NOEL: 300 mg/kg-day

## COC(=O)c1cccc(C(=O)OC)c1 [Dimethyl isophthalate]
Rattus norvegicus [1]; subchronic, gavage, M, Sprague-Dawley, Clinical Observation: Salivation + Urinalysis: Volume increase, Na increase
  NOAEL: 250 mg/kg-day

## O=C1C=CC(=O)N1c1ccc(Cc2ccc(N3C(=O)C=CC3=O)cc2)cc1 [Bismaleimide]
Rattus norvegicus [1]; subchronic, gavage, Sprague-Dawley
  NOEL: 1000 mg/kg-day

## C=C[Si](C)(C)O[Si](C)(C)C=C [Divinyltetramethyldisiloxane]
Rattus norvegicus [1]; short-term, duration: 28 days, gavage, M, CD(SD), Clinical Observation: Clear material around the mouth Red material around the mouth + Body Weight Changes: Mean body weight decrease, Weight…
  NOAEL: < 50 mg/kg-day

## C1=CCCC=CCCC=CCC1 [1,5,9-Cyclododecatriene]
Rattus norvegicus [1]; subchronic, duration: 42 days, gavage, M, CD(SD), Clinical Observation: Salivation + Body Weight Changes: Weight gain decrease + Hematology: PT increase, APTT increase, Fibrinogen increase…
  NOEL: 12 mg/kg-day
Rattus norvegicus [1]; subchronic, duration: 55 days, gavage, M, Sprague-Dawley, Body Weight Changes: Weight gain decrease + Food Consumption: increase + Urinalysis: Vol increase + Blood Chemistry: TG decrease + Absolute …
  NOAEL: 30 mg/kg-day

## [CH3][Sn]([Cl])([Cl])[Cl] [Trichloromethylstannane]
Rattus norvegicus [1]; subchronic, duration: 90 days, diet, M/F, Wistar, Food Consumption: increase + Urinalysis: Volume increase, Specific gravity decrease, pH increase, Crystals increase + Hematology: RBC …
  NOAEL: 14.4 mg/kg-day

## Nc1ccc2cc(S(=O)(=O)O)ccc2c1 [6-Aminonaphthalene-2-sulfonic acid]
Rattus norvegicus [1]; short-term, duration: 28 days, gavage, M/F, Urinalysis: pH decrease + Blood Chemistry: GOT increase
  NOEL: 300 mg/kg-day

## CC(C)(C)C(O)(CCc1ccc(Cl)cc1)Cn1cncn1 (centres undefined) [Tebuconazole]
Rattus norvegicus [1]; short-term, duration: 28 days, gavage, M/F, Clinical Observation: Coma Polyuria + Body Weight Changes: Body weight gain decrease + Hematology: WBC increase, Seg% increase + Blood …
  NOEL: 30 mg/kg-day

## CN(C)CCCCCCN(C)C [N,N,N',N'-Tetramethyl-1,6-hexanediamine]
Rattus norvegicus [1]; subchronic, gavage, M, Sprague-Dawley, Histopathology: Lungs/ bronchus a"Vacuolation, bronchial epithelium Epididymis- Decrease, sperm
  NOEL: 10 mg/kg-day

## O=C1c2ccccc2C(=O)c2c(Cl)cccc21 [1-Chloroanthraquinone]
Rattus norvegicus [1]; short-term, duration: 28 days, gavage, M/F, Sprague-Dawley, Clinical Observation: Brown urine + Functional Observational Battery: Landing foot splay decrease, Locomotor activity decrease + Food …
  NOEL: < 4 mg/kg-day

## CC(C)(C)c1cc(N=C(NO)c2ccc([N+](=O)[O-])cc2)n[nH]1
Rattus norvegicus [1]; short-term, duration: 28 days, gavage, M/F, Body Weight Changes: Weight gain decrease + Hematology: RET increase, RBC decrease, HGB decrease, WBC increase, MCV increase, MCH increase, …
  NOEL: < 4 mg/kg-day

## [In] [Indium]
Rattus norvegicus [1]; short-term, duration: 28 days, gavage, Crj:CD
  NOEL: 1000 mg/kg-day

## Cc1cc(O)c2c(c1)C(=O)c1cc(O)cc(O)c1C2=O [Emodin]
Rattus norvegicus [1]; chronic, duration: 14 weeks, diet, M/F, Fischer 344, Clinical Observation: Body color change Diarrhea + Body Weight Changes: decrease. >2500 + Food Consumption: decrease + Hematology: Hct …
  NOEL: < 24.4 mg/kg-day

## O=C1Oc2cc3c(cc2=C1c1ccccc1)OC(=O)C=3c1ccc(OCC2CCCO2)cc1 (centres undefined)
Rattus norvegicus [1]; short-term, duration: 28 days, gavage
  NOEL: 1000 mg/kg-day

## CC(C)c1ccc2oc3nc(N)c(C(=O)O)cc3c(=O)c2c1 [Amlenanox]
Rattus norvegicus [1]; subchronic, duration: 35 days, gavage, M/F, Wistar, Blood Chemistry: ALP increase + Absolute Organ Weight: Cecum increase, Stomach increase + Relative Organ Weight: Carcass increase, Cecum …
  NOEL: 200 mg/kg-day

## COc1cc(S(=O)(=O)CCOS(=O)(=O)O)c(OC)cc1N
Rattus norvegicus [1]; short-term, duration: 28 days, gavage, F, Blood Chemistry: Na increase + Relative Organ Weight: Liver increase, Kidney increase
  NOEL: 30 mg/kg-day

## CC/C=C\CCOC(=O)c1ccccc1O [(3Z)-Hex-3-en-1-yl salicylate]
Rattus norvegicus [1]; subchronic, duration: 42 days, gavage, M, Sprague-Dawley, Water Consumption: increase + Urinalysis: Volume increase, Osmo decrease + Hematology: RBC decrease, MCV increase, MCHC increase, RET …
  NOAEL: 120 mg/kg-day

## Cc1ccc(C)c(OCCCC(C)(C)C(=O)O)c1 [Gemfibrozil]
Rattus norvegicus [1]; chronic, duration: 91 days, diet, F, CD, Body Weight Changes: Body weight gain decrease + Hematology: RBC decrease, HCT decrease, HGB decrease, Plt increase, RET increase + Blood …
  NOAEL: 30 mg/kg-day
Rattus norvegicus [1]; chronic, duration: 91 days, diet, M, CD, Body Weight Changes: Body weight gain decrease + Hematology: RBC decrease, HCT decrease, HGB decrease, Plt increase, RET increase + Blood …
  NOAEL: < 30 mg/kg-day

## Cc1cccc(Cl)c1Cl [Benzene, 1,2-dichloro-3-methyl-]
Rattus norvegicus [1]; [11]
  NOAEL: 200 mg/kg-day
  NOEL: < 50 mg/kg-day

## CCC1(c2ccccc2)C(=O)NCNC1=O [Primidone]
Rattus norvegicus [1]; chronic, duration: 14 weeks, diet, M/F, Fischer 344, Body Weight Changes: decrease + Hematology: Plt increase, Hgb decrease, WBC increase, Lympho increase + Blood Chemistry: Blood cemistry', '…
  NOEL: < 23.4 mg/kg-day
